The source of these data is US6579859B1 (priority 2002, dated 2003).

“And” between values parts separate entries of the source, which are not always exact repeats. Equal values may be shown once. Bounds are passed on as bounds.

Assay type in all cases: cell-based
The test system of one experiment is Acanthamoeba (Cyst). Put plainly: Acanthamoeba cyst toxicity test (minimal lethal concentration). To be noted: 24 hours exposure at 30° C.; no trophozoites after 6 days; replicate tests. As to the method:
E. coli (ATCC#25922) were grown in Difaco Bacto nutrient agar and killed via UV light for use as nutrient for the Acanthamoeba cysts. The killed E. coli were placed on a non-nutrient agar plate. 1-2 drops of washed Acanthamoeba (from Tennessee Technological University) from a 2-3 day old plate were placed on the plate and incubated for 2-3 days at 30° C. A biofilm was prepared by placing approximately 9 milliliters of the active E. coli culture in sterile coplin jars containing 4 cover slips and incubating over night. The cover slips were rinsed in Osterhout-tris buffer and placed on 2-3 day old Acanthamoeba trophozoite plates and incubated for 7 days. In 7 days, the trophozoites will exhaust the E. coli nutrients and form cysts. The cover slips were soaked in approximately 9 milliliters of Osterhout-tris buffer and the cover slips placed in coplin jars. 50 ppm dilutions of the biocides to be tested were added to the coplin jars containing the cover slips with cysts and the coplin jars were incubated at 30° C. for 24 hours.
After 24 hours, the test solutions were removed and the cover slips soaked in Osterhout-tris buffer for 30 minutes. The cover slips were placed on non-nutrient agar plates with live E. coli. The plates were observed using an inverted microscope every day for 6 days to see if trophozoites were present. If trophozoites appeared, the test was positive. […]

A further experiment has as its system Acanthamoeba Trophozoite. Put plainly: Acanthamoeba trophozoite toxicity test (minimal lethal concentration). The conditions noted are these: 24 hours at 30°; all organisms dead in all replicate wells; replicate tests. As to the method: E. coli (ATCC #25922) grown in Difco Bacto nutrient agar and killed via UV light were used as nutrient for the Acanthamoeba. The killed E. coli were placed on a non-nutrient agar plate. 1-2 drops of washed Acanthamoeba Trophozoite (from Tennessee Technological University) were placed on the plate and incubated for 2-3 days at 30° C. An inoculum was prepared by placing about 2 ml of Osterhout-tris buffer onto the 2-3 day old plates. A sterile loop was used to dislodge the Trophozoites from the agar surface. The liquid was transferred to a sterile tube and diluted 1:10. 10 micro liters were placed on a slide and counted to confirm about 90 Acanthamoeba per 10 micro liters for the test. This solution was placed in a standard 96 well test plate with successive 50% dilutions per row. A 400 ppm solution of toxicants in Osterhout-tris buffer was prepared. Toxicants were added to 3 adjacent wells for testing. To avoid cross contamination, a well was skipped between each 3 replicate wells in every row and every other row skipped on the plate. The plate was incubated at 30° for 24 hours. An inverted microscope was used to observe the organisms in the wells. Cytoplasm will move in live amoeba and/or the contractile vacuoles will remain active. All organisms had to be dead in a well to have a negative reading. […]

The test system of experiment [1] is Tetrahymena (Trophozoite). Put plainly: Tetrahymena toxicity test (minimal lethal concentration). To be noted: lowest concentration at which all Tetrahymena were dead in all replicate wells; replicate tests. On the procedure: Tetrahymena cells from a commercial source were grown in PCB broth in a tissue culture flask. The cells were removed from the broth via centrifuge and suspended in Osterhout-tris buffer at a concentration of no greater than 60 cells per 10 micro liters. A standard 96 well test plate comprising successive 50% dilutions of this cellular solution per row was prepared. Chemicals to be tested were added to 3 adjacent wells. Organism viability was tested via observation through an inverted microscope at time zero and every 24 hours thereafter. Tetrahymena were judged viable if they were motile or had active contractile vacuoles. All organisms in a well had to be dead to have a negative reading. A positive reading indicated all or some viable orgasms in a well. The minimal lethal concentration (MLC) of the test materials to Tetrahymena was the lowest toxicant concentration in which all Tetrahymena were dead in all replicate wells.

On to `CCCCCCCCCCCCCC[P+](CCCC)(CCCC)CCCC.[Cl-]` [TBTDPC, Tri-n-butyl-tetradecylphosphonium chloride], for which the “Minimal Lethal Concentration, Acanthamoeba (Cyst)” value in the experiment on Acanthamoeba (Cyst) is 25 μg/ml (4×) and 40 μg/ml. Moreover, the “Minimal Lethal Concentration, Acanthanoeba (Trophozoite)” value in the experiment with Acanthamoeba Trophozoite came out at 2.5 µg/mL. The “Minimal Lethal Concentration, Tetrahymena (Trophozoite)” value in experiment [1] turned out to be 2.5 µg/mL.
In the case of `OC[P+](CO)(CO)CO.[Cl-]` [THPS, Tetra kis hydroxymethyl phosphonium chloride, reference compound], the “Minimal Lethal Concentration, Acanthamoeba (Cyst)” value with Acanthamoeba (Cyst) was above 50 µg/mL. In addition, the “Minimal Lethal Concentration, Acanthanoeba (Trophozoite)” value with Acanthamoeba Trophozoite came out at 56 µg/mL. Besides, in experiment [1], the “Minimal Lethal Concentration, Tetrahymena (Trophozoite)” value was 28 µg/mL.
